Results reported in patent publication US20150011423A1, “MEANS AND METHODS FOR ASSESSING KIDNEY TOXICITY” (BASF SE, priority 2011, published 2015).
Marks after values point to notes of the source that are not given here.

System: rats
Assay: 28-day repeated dose study in rats with mass spectrometry-based plasma metabolite profiling (GC-MS, LC-MS, SPE-LC-MS); treatment ratios versus control
Settings: plasma
[1] = female rats, day 14, high dose, Table 3a tubular defect
[2] = female rats, day 14, high dose, Table 3b tubular defect
[3] = female rats, day 28, high dose, Table 3a tubular defect
[4] = female rats, day 28, high dose, Table 3b tubular defect
[5] = male rats, day 14, high dose, Table 3c tubular defect
[6] = male rats, day 14, high dose, Table 3d tubular defect
[7] = male rats, day 28, high dose, Table 3c tubular defect
[8] = male rats, day 28, high dose, Table 3d tubular defect
[9] = male rats, day 7, high dose, Table 7a interstitial nephritis
[10] = male rats, day 7, high dose, Table 7b interstitial nephritis
[11] = male rats, day 14, high dose, Table 7a interstitial nephritis
[12] = male rats, day 14, high dose, Table 7b interstitial nephritis
[13] = male rats, day 28, high dose, Table 7a interstitial nephritis
[14] = male rats, day 28, high dose, Table 7b interstitial nephritis
[15] = female rats, day 28, high dose, Table 5a tubular necrosis
[16] = female rats, day 28, high dose, Table 5b tubular necrosis
[17] = male rats, day 28, high dose, Table 8a direct tubular effect
[18] = male rats, day 28, high dose, Table 8b direct tubular effect

Method: A group of each 5 male and female rats was dosed once daily with the indicated compounds (see Table 9, below for compounds, applied doses and administration details) over 28 days.
Each dose group in the studies consisted of five rats per sex. Additional groups of each 5 male and female animals served as controls. Before starting the treatment period, animals, which were 62-64 days old when supplied, were acclimatized to the housing and environmental conditions for 7 days. All animals of the animal population were kept under the same constant temperature (20-24±3° C.) and the same constant humidity (30-70%). The animals of the animal population were fed ad libitum. The food to be used was essentially free of chemical or microbial contaminants. Drinking water was also offered ad libitum. […] The illumination period was 12 hours light followed by 12 hours darkness (12 hours light, from 6:00 to 18:00, and 12 hours darkness, from 18:00 to 6:00). […] The test substances (compounds in Table 9 were dosed and administered as described in the table above.
In the morning of day 7, 14, and 28, blood was taken from the retroorbital venous plexus from fasted anaesthetized animals. From each animal, 1 ml of blood was collected with EDTA as anticoagulant. The samples were centrifuged for generation of plasma. All plasma samples were covered with a N2 atmosphere and then stored at −80° C. until analysis.
For mass spectrometry-based metabolite profiling analyses plasma samples were extracted and a polar and a non-polar (lipid) fraction was obtained. For GC-MS analysis, the non-polar fraction was treated with methanol under acidic conditions to yield the fatty acid methyl esters. Both fractions were further derivatised with O-methyl-hydroxyamine hydrochloride and pyridine to convert Oxo-groups to O-methyloximes and subsequently with a silylating agent before analysis. In LC-MS analysis, both fractions were reconstituted in appropriate solvent mixtures. HPLC was performed by gradient elution on reversed phase separation columns.
Steroids and their metabolites were measured by online SPE-LC-MS (Solid phase extraction-LC-MS).
Following comprehensive analytical validation steps, the data for each analyte were normalized against data from pool samples. These samples were run in parallel through the whole process to account for process variability. The significance of treatment group values specific for sex, treatment duration and metabolite was determined by comparing means of the treated groups to the means of the respective untreated control groups using WELCH-test and quantified with treatment ratios versus control and p-values.

N.N.O=C([O-])C1(C(=O)[O-])CCC1.[Pt+2] [Carboplatin]
Creatine, treatment ratio versus control [1]: 1.22 * | Creatinine, treatment ratio versus control [1]: 0.85 | Galactose, lipid fraction, treatment ratio versus control [1]: 1.17 * | Glucuronic acid, treatment ratio versus control [1]: 1.36 | Glycerol-3-phosphate, polar fraction, treatment ratio versus control [1]: 1.66 * | Glycine, treatment ratio versus control [1]: 1.08 | Histidine, treatment ratio versus control [1]: 1.03 | Isoleucine, treatment ratio versus control [1]: 1.09 * | Leucine, treatment ratio versus control [1]: 1.13 * | Lysophosphatidylcholine (C18:1), treatment ratio versus control [1]: 0.98 | Phosphatidylcholine No 02, treatment ratio versus control [1]: 1.07 * | TAG No 05, treatment ratio versus control [1]: 1.9 * | Threonic acid, treatment ratio versus control [1]: 1.14 | Threonine, treatment ratio versus control [1]: 0.99 | Uracil, treatment ratio versus control [1]: 1.07 | Valine, treatment ratio versus control [1]: 1.07 * | Xylitol, treatment ratio versus control [1]: 0.83 | Cysteine, treatment ratio versus control [2]: 0.83 * | Glycerol, polar fraction, treatment ratio versus control [2]: 0.88^ | Hippuric acid, treatment ratio versus control [2]: 0.59^ | Indole-3-acetic acid, treatment ratio versus control [2]: 0.38 * | Spermidine, treatment ratio versus control [2]: 0.95^ | Sucrose, treatment ratio versus control [2]: 0.67 * | Creatine, treatment ratio versus control [3]: 1.41 * | Creatinine, treatment ratio versus control [3]: 1.59 * | Galactose, lipid fraction, treatment ratio versus control [3]: 0.84^ | Glucuronic acid, treatment ratio versus control [3]: 1.24 * | Glycerol-3-phosphate, polar fraction, treatment ratio versus control [3]: 2.2 * | Glycine, treatment ratio versus control [3]: 1.17 * | Histidine, treatment ratio versus control [3]: 1.3 * | Isoleucine, treatment ratio versus control [3]: 1.35 * | Leucine, treatment ratio versus control [3]: 1.38 * | Lysophosphatidylcholine (C18:1), treatment ratio versus control [3]: 1.12 * | Phosphatidylcholine No 02, treatment ratio versus control [3]: 0.97^ | TAG No 05, treatment ratio versus control [3]: 1.27 * | Threonic acid, treatment ratio versus control [3]: 1.23 * | Threonine, treatment ratio versus control [3]: 1.24 * | Uracil, treatment ratio versus control [3]: 1.37 * | Valine, treatment ratio versus control [3]: 1.25 * | Xylitol, treatment ratio versus control [3]: 1.56 * | Cysteine, treatment ratio versus control [4]: 0.67 | Glycerol, polar fraction, treatment ratio versus control [4]: 0.78 * | Hippuric acid, treatment ratio versus control [4]: 0.3 * | Indole-3-acetic acid, treatment ratio versus control [4]: 0.65 | Spermidine, treatment ratio versus control [4]: 0.69 * | Sucrose, treatment ratio versus control [4]: 0.61 | Allantoin, treatment ratio versus control [5]: 1.4 | Creatine, treatment ratio versus control [5]: 1.32 * | Glycerol-3-phosphate, polar fraction, treatment ratio versus control [5]: 1.59 * | Histidine, treatment ratio versus control [5]: 1.02 | Kynurenic acid, treatment ratio versus control [5]: 1.21 * | Nervonic acid (C24:cis[15]1), treatment ratio versus control [5]: 1.02 | Pantothenic acid, treatment ratio versus control [5]: 1.17 | Pseudouridine, treatment ratio versus control [5]: 1.33 * | Taurine, treatment ratio versus control [5]: 1.18 * | Urea, treatment ratio versus control [5]: 1.47 * | 16-Methylheptadecanoic acid, treatment ratio versus control [6]: 0.74 * | Linolenic acid (C18:cis[9,12,15]3), treatment ratio versus control [6]: 0.75 | Phosphatidylcholine No 02, treatment ratio versus control [6]: 0.87 * | Phosphatidylcholine No 04, treatment ratio versus control [6]: 0.74 * | TAG (C18:1, C18:2), treatment ratio versus control [6]: 0.79 * | Allantoin, treatment ratio versus control [7]: 1.24 * | Creatine, treatment ratio versus control [7]: 1.42 * | Glycerol-3-phosphate, polar fraction, treatment ratio versus control [7]: 1.61 * | Histidine, treatment ratio versus control [7]: 1.22 * | Kynurenic acid, treatment ratio versus control [7]: 1.7 | Nervonic acid (C24:cis[15]1), treatment ratio versus control [7]: 1.51 * | Pantothenic acid, treatment ratio versus control [7]: 1.47 * | Pseudouridine, treatment ratio versus control [7]: 1.11 * | Taurine, treatment ratio versus control [7]: 1.54 * | Urea, treatment ratio versus control [7]: 1.08 | 16-Methylheptadecanoic acid, treatment ratio versus control [8]: 0.51 * | Linolenic acid (C18:cis[9,12,15]3), treatment ratio versus control [8]: 0.7 * | Phosphatidylcholine No 02, treatment ratio versus control [8]: 0.91 * | Phosphatidylcholine No 04, treatment ratio versus control [8]: 0.78 | TAG (C18:1, C18:2), treatment ratio versus control [8]: 0.62 *

CCc1ccccc1 [Ethyl benzene, Ethylbenzene]
Creatine, treatment ratio versus control [9]: 1.4 * | Creatinine, treatment ratio versus control [9]: 1.41 * | Eicosanoic acid (C20:0), treatment ratio versus control [9]: 1.41 * | Glucuronic acid, treatment ratio versus control [9]: 1.08^ | Lignoceric acid (C24:0), treatment ratio versus control [9]: 1.31 * | Phosphatidylcholine (C18:2, C20:4), treatment ratio versus control [9]: 1.05 * | Serine, treatment ratio versus control [9]: 1.12 * | Sphingomyelin (d18:1, C16:0), treatment ratio versus control [9]: 1.69 * | Threonine, treatment ratio versus control [9]: 1.31 * | myo-Inositol-2-phosphate, treatment ratio versus control [9]: 1.39 * | Glycerol, polar fraction, treatment ratio versus control [10]: 0.98^ | Isopalmitic acid (C16:0), treatment ratio versus control [10]: 0.55 * | Kynurenic acid, treatment ratio versus control [10]: 0.71 * | Creatine, treatment ratio versus control [11]: 1.35 * | Creatinine, treatment ratio versus control [11]: 1.58 * | Eicosanoic acid (C20:0), treatment ratio versus control [11]: 1.3 * | Glucuronic acid, treatment ratio versus control [11]: 1.17 * | Lignoceric acid (C24:0), treatment ratio versus control [11]: 1.55 * | Phosphatidylcholine (C18:2, C20:4), treatment ratio versus control [11]: 1.06 * | Serine, treatment ratio versus control [11]: 1.5 * | Sphingomyelin (d18:1, C16:0), treatment ratio versus control [11]: 1.5 * | Threonine, treatment ratio versus control [11]: 1.72 * | myo-Inositol-2-phosphate, treatment ratio versus control [11]: 0.88^ | Glycerol, polar fraction, treatment ratio versus control [12]: 0.87^ | Isopalmitic acid (C16:0), treatment ratio versus control [12]: 0.57 * | Kynurenic acid, treatment ratio versus control [12]: 0.83 * | Creatine, treatment ratio versus control [13]: 1.34 * | Creatinine, treatment ratio versus control [13]: 1.33 * | Eicosanoic acid (C20:0), treatment ratio versus control [13]: 1.76 * | Glucuronic acid, treatment ratio versus control [13]: 1.26 * | Lignoceric acid (C24:0), treatment ratio versus control [13]: 1.23 * | Phosphatidylcholine (C18:2, C20:4), treatment ratio versus control [13]: 1.05^ | Serine, treatment ratio versus control [13]: 1.54 * | Sphingomyelin (d18:1, C16:0), treatment ratio versus control [13]: 1.48 * | Threonine, treatment ratio versus control [13]: 2.44 * | myo-Inositol-2-phosphate, treatment ratio versus control [13]: 1.3 * | Glycerol, polar fraction, treatment ratio versus control [14]: 0.75 * | Isopalmitic acid (C16:0), treatment ratio versus control [14]: 0.59 * | Kynurenic acid, treatment ratio versus control [14]: 0.8 *

ClC(Cl)=C(Cl)C(Cl)=C(Cl)Cl [Hexachlorobutadiene]
Docosahexaenoic acid (C22:cis[4,7,10,13,16,19]6), treatment ratio versus control [15]: 1.19 * | Docosapentaenoic acid (C22:cis[7,10,13,16,19]5), treatment ratio versus control [15]: 1.61 * | Eicosanoic acid (C20:0), treatment ratio versus control [15]: 1.56 * | Glycerol, lipid fraction, treatment ratio versus control [15]: 1.29 * | Leucine, treatment ratio versus control [15]: 1.34 * | Phosphate (inorganic and organic phosphates), treatment ratio versus control [15]: 1.19 * | Hippuric acid, treatment ratio versus control [16]: 0.35 * | Lactate, treatment ratio versus control [16]: 0.62 * | Glycerol-3-phosphate, polar fraction, treatment ratio versus control [17]: 1.58 * | Isoleucine, treatment ratio versus control [17]: 1.11 * | Leucine, treatment ratio versus control [17]: 1.17 * | Lysophosphatidylethanolamine (C22:0), treatment ratio versus control [17]: 1.33 * | Ornithine, treatment ratio versus control [17]: 1.35 * | TAG No 02, treatment ratio versus control [17]: 1.47 * | Threonine, treatment ratio versus control [17]: 1.3 * | 14-Methylhexadecanoic acid, treatment ratio versus control [18]: 0.82 * | 16-Methylheptadecanoic acid, treatment ratio versus control [18]: 0.51 * | 18-Hydroxy-11-deoxycorticosterone, treatment ratio versus control [18]: 0.49 * | Citrate, treatment ratio versus control [18]: 0.93 * | DAG (C18:1, C18:2), treatment ratio versus control [18]: 0.66 * | Elaidic acid (C18:trans[9]1), treatment ratio versus control [18]: 0.8 * | Isopalmitic acid (C16:0), treatment ratio versus control [18]: 0.61 * | Ketoleucine, treatment ratio versus control [18]: 0.91 * | Linolenic acid (C18:cis[9,12,15]3), treatment ratio versus control [18]: 0.6 * | Lysophosphatidylcholine (C18:0), treatment ratio versus control [18]: 0.97 * | Oleic acid (C18:cis[9]1), treatment ratio versus control [18]: 0.71 * | Palmitoleic acid (C16:cis[9]1), treatment ratio versus control [18]: 0.25 * | TAG (C16:0, C16:1), treatment ratio versus control [18]: 0.51 * | trans-4-Hydroxyproline, treatment ratio versus control [18]: 0.74 *

C[C@H](CCC(=O)O)[C@H]1CC[C@H]2[C@@H]3CC[C@@H]4C[C@H](O)CC[C@]4(C)[C@H]3CC[C@]12C [Lithocholic acid]
Eicosanoic acid (C20:0), treatment ratio versus control [9]: 1.81 * | Glucuronic acid, treatment ratio versus control [9]: 0.85 * | Glycerol, polar fraction, treatment ratio versus control [10]: 0.93^ | Isopalmitic acid (C16:0), treatment ratio versus control [10]: 0.63 * | Kynurenic acid, treatment ratio versus control [10]: 0.75 * | Glucuronic acid, treatment ratio versus control [11]: 1 | myo-Inositol-2-phosphate, treatment ratio versus control [11]: 1.01 | Glycerol, polar fraction, treatment ratio versus control [12]: 0.86^ | Isopalmitic acid (C16:0), treatment ratio versus control [12]: 0.54 * | Kynurenic acid, treatment ratio versus control [12]: 0.75 * | Glucuronic acid, treatment ratio versus control [13]: 1 | Lignoceric acid (C24:0), treatment ratio versus control [13]: 1.3 * | Sphingomyelin (d18:1, C16:0), treatment ratio versus control [13]: 1.09 | Threonine, treatment ratio versus control [13]: 1.55 * | Glycerol, polar fraction, treatment ratio versus control [14]: 0.73 * | Isopalmitic acid (C16:0), treatment ratio versus control [14]: 0.68 * | Kynurenic acid, treatment ratio versus control [14]: 0.71^
